US20240408053A1, “ENTERITIS-SUPPRESSING COMPOSITION” (KOBE GAKUIN EDUCATIONAL FOUNDATION, priority 2021, published 2024)

Legend:
[1] = Change in body weight and general observation, 4 weeks; type: in vivo; details: groups S and ES (2.5 mg sesaminol per day, oral) vs groups C and E
Experimental: Ten-week-old C57BL/6NCr male mice were divided into four groups (eight mice per group), i.e., group C, group S, group E, and group ES, and fed daily for 4 weeks in the same manner as in Example 1.
The body weights of the mice in the above four groups (group C, group S, group E, and group ES) were measured every week.

[2] = test system: ethanol-induced lesion in mouse liver; test: HE or Oil Red O staining of liver sections (ethanol-induced alcoholic steatohepatitis); type: in vivo, mice; details: group ES: 2.0% v/v ethanol diet + 2.5 mg sesaminol per day oral, 4 weeks; group E significant increase
Text: Additionally, liver sections of the mice in each group (groups C, E, S, and ES) were stained with HE or Oil Red 0, and observed under a microscope.
Liver tissue samples were each fixed in a 10% v/v neutral formaldehyde solution overnight at room temperature and paraffin-embedded. The liver tissue sections were then stained with HE reagent, and frozen tissue sections were stained with Oil Red O reagent. Each stained specimen was observed under a microscope and subjected to image analysis.

[3] = test system: LPS; test: Plasma LPS level, 4 weeks; type: in vivo, mice; details: group ES: 2.0% v/v ethanol diet + 2.5 mg sesaminol per day oral, vs group E, level similar to groups C and S
Experimental: The plasma LPS concentration was measured with a limulus amebocyte lysate (LAL) assay.
(§1) Next, in order to verify the longer-term effect of oral administration of sesaminol on ethanol-induced intestinal tight junction (TJ) dysfunction and leaky gut, histological analysis of colonic epithelial TJ proteins (ZO-1, Occludin, and Claudin-1) and analysis of the plasma LPS level were performed using the mice in each group (groups C, S, E, and ES) described in Example 7. Histological analysis was performed by immunofluorescence staining with anti-ZO-1, anti-Occludin, and anti-Claudin-1 antibodies, followed by observation under a fluorescence microscope. The Plasma LPS level was measured according to the method described in Example 6.

[4] = test system: ZO-1; test: Immunofluorescence staining of ZO-1 in colon tissue, 4 weeks; type: in vivo, mice; details: group ES: 2.0% v/v ethanol diet + 2.5 mg sesaminol per day oral, group E significant decrease
Experimental: as §1

[5] = test system: ethanol-induced lesions in mouse colon; test: Microscopic evaluation of colon tissue (HE, TB, PAS, MUC2 staining), 4 weeks; type: in vivo, mice; details: group ES: 2.0% v/v ethanol diet + 2.5 mg sesaminol per day oral
Experimental: In order to verify the longer-term effect of oral administration of sesaminol on ethanol-induced oxidative stress in mouse colon, the colonic epithelium of the mice in each group (groups C, E, S, and ES) described in Example 7 was HE-stained, TB-stained, and periodic-acid-Schiff (PAS)-stained and observed under a microscope (FIGS. 10(A),(B), and (C)). Immunostaining with MUC2 polyclonal antibody was then performed (FIG. 10(D)). HE staining, TB staining, and immunostaining with MUC2 polyclonal antibody were performed in the same manner as in Example 2.
Colon tissue samples were each fixed in a 10% v/v neutral formaldehyde solution overnight at room temperature and paraffin-embedded. The colon tissue sections were then stained with PAS staining reagent for the detection of goblet cells. Each stained specimen was observed under a microscope and subjected to image analysis.

[6] = test system: ethanol-induced lesion in mouse colon; test: Microscopic evaluation of ethanol-induced lesion in mouse colon (HE, TB, MUC2 staining), 2 weeks; type: in vivo, mice
[7] = test system: IL-6; test: IL-6 expression in colon tissue (qRT-PCR, ELISA); type: in vivo, mice; details: group ES: 2.0% v/v ethanol diet + 2.5 mg sesaminol per day oral, 2 weeks, vs group E; higher than group C
Text: It has been reported that chronic consumption of an excessive amount of ethanol can induce inflammation associated with tumor formation in colon tissue. Therefore, in order to verify whether oral administration of sesaminol has a preventive effect on ethanol-induced colitis, the expression levels of inflammatory cytokines (TNF-α and IL-6) and chemokine (MCP-1) in the large intestinal lamina propria of the mice in the four groups (groups C, S, E, and ES) were examined by qRT-PCR and ELISA. The NF-κB activity in the mice in the four groups was also examined. NF-κB is a transcription factor that is involved in expression of genes regulating inflammation and is activated by exposure of immune cells to pro-inflammatory factors.
Total RNA was extracted from colon tissue samples. […]
A colon tissue sample (100 mg) was homogenized in 1 mL of an M-PER mammalian protein extraction reagent (Pierce) containing a diluent of a protease inhibitor cocktail (Nacalai Tesque, Inc.), and the resulting homogenate was centrifuged at 20,000× g at 4° C. for 15 minutes. The protein concentration of the supernatant was measured with a protein assay reagent (Bio-Rad Laboratories, Inc.), and equal amounts of proteins were used for analysis of the expression levels of TNF-α, IL-6, and MCP-1 by ELISA.

[8] = test system: secretory IgA; test: Amount of secretory IgA in colon tissue of mice; type: in vivo; details: group ES: 2.0% v/v ethanol diet + 2.5 mg sesaminol per day oral, 4 weeks, vs group E; level similar to group C
Experimental: The effect of oral administration of sesaminol on the amount of mucus secretion in mouse colon was examined by measuring the amount of fecal mucin of the mice in each group (groups C, E, S, and ES) and the amount of secretory immunoglobulin A (sIgA) in the colon tissue of the mice.
After liquid nitrogen treatment, the amount of sigA in each colon tissue stored at −80° C. was quantified according to the product protocol of a reagent kit for measuring secretory IgA (QuickDetect (trademark) Secretory IgA (Mouse) ELISA kit, produced by BioVision, Inc.). The resulting value was converted to the secretory IgA concentration (ng/ml) per 100 mg of the tissue and evaluated.

[9] = test system: ZO-1; test: Western blotting of ZO-1 in colon tissue; type: in vivo, mice; details: group ES: 2.0% v/v ethanol diet + 2.5 mg sesaminol per day oral, 2 weeks, vs group E; lower than group C
Text: Acetaldehyde, which accumulates during ethanol metabolism, is known to disrupt intestinal tight junctions (TJs) via dissociation of colonic epithelium TJ proteins (ZO-1, occludin, and claudin-1) from the cytoskeleton. […] Therefore, whether oral administration of sesaminol would affect ethanol-induced intestinal barrier dysfunction was examined by analyzing the expression levels of colonic epithelial TJ proteins and the plasma LPS level in the mice in the four groups (groups C, S, E, and ES).
WB was performed in the same manner as in Example 4 above. The following primary antibodies were used. • Anti-mouse zonula occludens-1 protein (ZO-1) rabbit polyclonal antibody • Anti-mouse occludin rabbit polyclonal antibody • Anti-mouse claudin-1 rabbit polyclonal antibody

[10] = group ES: 2.0% v/v ethanol diet + 2.5 mg sesaminol per day oral, vs group E

Q: Which “body-weight changes between the groups” value [1] does the source give for `Oc1cc2c(cc1C1OCC3C(c4ccc5c(c4)OCO5)OCC13)OCO2` (centres unmarked) [Sesaminol] here?
A: No significant differences

Q: What about the “lipid droplets in Oil Red O-stained liver tissue” value [2] of the same compound?
A: decrease in lipid droplets

Q: And the “plasma LPS concentration” value [3]?
A: significant and considerable decrease in the plasma LPS concentration compared with group E

Q: What about the “protein level of ZO-1 in colon tissue (fluorescence microscope observation)” value [4] of the same compound?
A: improvement in all of those levels

Q: And the “histological image of colon tissue (epithelium atrophy, goblet cells, mucus-secreting cells)” value [5]?
A: tendency of returning to the histological image of group C

Q: What about the “degree of lesion in colonic epithelium” value [6, 10] of the same compound?
A: smaller degree of lesion compared with that observed in group E

Q: And the “microscopic lesion score of colon tissue” value [6, 10]?
A: significantly lower than that of group E

Q: What about the “lesions in colonic epithelium” value ([6]; group S: 2.5 mg sesaminol per day oral, no ethanol) of the same compound?
A: No obvious lesions

Q: And the “expression level of IL-6 (mRNA by qRT-PCR, protein by ELISA)” value [7]?
A: significantly lower than those in group E

Q: And the “amount of secretory IgA in colon tissue” value [8]?
A: significantly higher than that in group E

Q: What about the “expression level of ZO-1” value [9] of the same compound?
A: significantly higher than those in group E
